Assay results published in patent US7309484B2, “Compositions and methods for screening antibacterial compounds” (priority 2003, dated 2007).

Experiments:
[1] = tested on: liaI expression (liaI::pMUTIN lacZ fusion, strain BFS2470; also liaH::pMUTIN, BFS2469); test: Disk-diffusion assay, blue ring on X-Gal plates; format: cell-based, Bacillus subtilis; conditions: for disk-diffusion assay: qualitative screen of β-Galactosidase activity, blue ring at edge of zone of inhibition, LB plates with X-Gal, strain BFS2470; for induction of liaI / liaH expression, in words: strains BFS2469 and BFS2470; as to Disk-diffusion assay: key: −: no induction; +: induction of yvql expression
Description: The pMUTIN-insertion results in a disruption of the targeted gene and generates a transcriptional fusion to lacZ thereby allowing detection of both antibiotic sensitivity (as defined by the zone of inhibition around the disk) and inducibility (by the formation of a blue ring at the edge of the zone of inhibition) (Cao et al., 2002, Mol Microbiol. 45: 1267-1276, the entire teaching of which is incorporated herein). The disruption of liaI and liaH had no effect on the sensitivity of the mutants to any of the antibiotics tested. […] Equivalent levels of induction were also observed with the PliaI-74-cat-lacZ fragment (in HB0950), albeit with lower fold-changes (See, Table 2). While the mode of action is different for these antibiotics, all four interfere with the lipid II cycle, essential for the biosynthesis of cell envelope polymers (Lazar et al., 2002, Curr. Opin. Chem. Biol. 6: 786-93).
PliaI induction assays: Screening for liaI induction was done by disk diffusion assay essentially as described (Cai, S. J., and M. Inouye, 2002, J Biol Chem 277:24155-61). B. subtilis strains were inoculated from a fresh overnight LB agar plate and grown to mid-log phase (OD600 ˜0.45) at 37 YC with shaking. 20 μl of the culture was mixed with 3 ml of 0.7% soft LB agar (containing 40 μg of X-Gal per plate) and poured onto the bottom agar. After cooling and drying of the plates (20 min at 37 YC), filter paper disks (6 mm diameter) carrying 5 μl of stock solution (antibiotics normally 100 mg/ml; lysozyme 10 mg/ml; tunicamycin, surfactants, uncouplers 5 mg/ml each; inhibitors of protein biosynthesis as given in the media and growth conditions section) were placed on top of the agar. The plates were incubated at 37 YC overnight. After 12-24 h incubation, the plates were scored for the appearance of a blue ring at or near the edge of the zone of growth inhibition produced by the diffusion of the antibiotics from the filter disk.

[2] = tested on: liaI expression in B. subtilis; conditions: 10 min after vancomycin addition; cited from earlier work
[3] = tested on: B. subtilis strain BFS2470; test: Concentration-dependent induction/killing experiments; format: cell-based, Bacillus subtilis; conditions: for lacZ-expression at higher concentration: FIG. 7a; for lacZ-expression at higher concentration / effect on cell growth / optical density: in words; for effect on cell growth / optical density: high concentrations, FIG. 7b; for antibiotic concentration at maximum induction of liaI: β-galactosidase assay after 30 min, 0.01 to 100 μg/ml tested
Protocol: Concentration-dependent induction/killing experiments were performed for bacitracin, nisin, ramoplanin and vancomycin as shown in FIG. 7. In all four cases the induction of liaI occurred in a concentration-dependent manner (FIG. 7a), reaching a maximum at an antibiotic concentration of about 10 μg/ml (1 μg/mL for vancomycin). The time of antibiotic addition is indicated by an arrow. The antibiotic concentrations affecting the induction of PliaI according to the β3-galactosidase assay are indicated by white symbols. The corresponding concentrations are: bacitracin ([…]), nisin (50, 70 and 100 μg/ml), ramoplanin (20, 50 and 100 μg/mL) and vancomycin (5, 10, 50 and 100 μg/mL).
This finding correlates well with the bactericidal effects of these antibiotics as inferred from the dramatic decrease of optical density: there is little effect of bacitracin and vancomycin on cell growth during the first 30-60 min after addition even at high concentrations (FIG. 7b).
The cultures were incubated with aeration at 37° C.

[4] = tested on: liaI expression (pMUTIN-derived lacZ fusion, strain BFS2470); test: microbe, parasite or virus in culture; conditions: for fold induction of liaI expression: text to FIG. 4: bacitracin 100 μg/mL, tunicamycin 50 μg/mL, vancomycin 2 μg/mL, 30 minutes, nisin, ramoplanin results not shown
Protocol: Disc-diffusion assays were used to determine the spectrum of stimuli that induce the expression of liaIH. The B. subtilis strains BFS2469 and BFS2470 (Table 2), harboring pMUTIN-insertions in liaH and liaI respectively, were plated on a medium containing the indicator dye X-gal and overlaid with filter disks impregnated with various antibiotics that interfere with cell wall biosynthesis. Specifically, cultures of B. subtilis strain BFS2469 (liaH::pMUTIN) and BFS2470 (liaI::pMUTIN) were grown in LB medium to midlog phase, 2 mL for the un-induced control sample were harvested, and the remaining culture was induced with the three antibiotics for 30 minutes, before the cells of the induced sample were harvested. All samples were taken in duplicate from two independent cultures and the standard deviation is indicated by error bars.
Measurement of induction by β-galactosidase assays: Cells were inoculated from fresh overnight LB-plates and grown in LB-medium at 37° C. with aeration until they reached an O.D.600=0.45. 2 mL of cultures were harvested (un-induced control) and the cell pellets were shock frozen and kept at −70° C. The cultures were induced by addition of antibiotics to a final concentration of: bacitracin (100 μg/mL), tunicamycin (50 μg/mL) or vancomycin (2 μg/mL) and incubated for additional 30 min at 37° C. 2 mL of the cultures were harvested as described above (induced sample). The pellets were re-suspended in 1 mL of working buffer and assayed for β-galactosidase activity as described with normalization to cell density (Miller, 1972, the entire teaching of which is incorporated herein by reference).
For quantitative measurements of β-galactosidase activity, cells were inoculated from fresh overnight LB-plates and grown in LB medium at 37 YC with aeration until they reached an OD600 of 0.45. 2 ml of the culture was harvested (un-induced control) and the cell pellets were frozen and kept at −80 YC. The cultures were induced by addition of the compound to be tested to the final concentration as described in the individual figure legends and incubated for an additional 30 min at 37 YC. 2 ml of the cultures were harvested as described above. The pellets were re-suspended in 1 ml of working buffer (60 mM Na2HPO4, 40 mMNaH2PO4, 10 mM KCl, 1 mM MgSO4, 4 mM DTT) and assayed for β-galactosidase activity as described with normalization to cell density Kobayashi, K., et al., 2001, J Bacteriol 183:7365-7370). […] A sample was taken after 30 min for β-galactosidase assay and the turbidity of the remaining culture was measured for at least 5 hours to monitor the concentration-dependent effects of the antibiotics on cell growth.

Row | Molecule | disk-diffusion assay [1] | other results
1 | CC1(C)S[C@@H]2[C@H](NC(=O)[C@H](N)c3ccccc3)C(=O)N2[C@H]1C(=O)O [Ampicillin] | − | 
2 | CCCCCCCCCCCC[N+](C)(C)Cc1ccccc1.[Br-] [BDMDDA-Br, Benzyldimethyldodecylammonium bromide] | − | 
3 | CCCCCCCCCCCCCCCC[N+](C)(C)Cc1ccccc1.[Cl-] [BDMHDA-Cl, Benzyldimethylhexadecylammonium chloride] | + | induction of liaI / liaH expression, in words [1]: moderately induced
4 | N#CC(C#N)=NNc1cccc(Cl)c1 [CCCP] | − | induction of liaI / liaH expression, in words [1]: neither elevated liaIH expression
5 | O=C(N[C@H](CO)[C@H](O)c1ccc([N+](=O)[O-])cc1)C(Cl)Cl [Chloramphenicol] | − | 
6 | N[C@@H]1CONC1=O [D-cycloserin] | − | 
7 | O=[N+]([O-])c1ccc(O)c([N+](=O)[O-])c1 [DNP] | − | induction of liaI / liaH expression, in words [1]: neither elevated liaIH expression
8 | CCCCCCCCCCCCCCCC[N+](C)(C)C.[Br-] [HDTMA-Br, Hexadecyltrimethylammonium] | − | 
9 | CC1(C)S[C@@H]2[C@H](NC(=O)Cc3ccccc3)C(=O)N2[C@H]1C(=O)O [Penicillin G] | − | 
10 | CCCCCCCCCCCCOS(=O)(=O)[O-].[Na+] [SDS, sodium dodecylsulfate] | − | 
11 | CN[C@H](CC(C)C)C(=O)N[C@H]1C(=O)N[C@@H](CC(N)=O)C(=O)N[C@H]2C(=O)N[C@H]3C(=O)N[C@H](C(=O)N[C@H](C(=O)O)c4cc(O)cc(O)c4-c4cc3ccc4O)[C@H](O)c3ccc(c(Cl)c3)Oc3cc2cc(c3O[C@@H]2O[C@H](CO)[C@@H](O)[C@H](O)[C@H]2O[C@H]2C[C@](C)(N)[C@H](O)[C@H](C)O2)Oc2ccc(cc2Cl)[C@H]1O [Vancomycin] | + | induction of liaI / liaH expression, in words [1]: induced; increase in liaI expression level [2]: more than 100 fold; lacZ-expression at higher concentration [3]: remained elevated; effect on cell growth / optical density [3]: little effect; antibiotic concentration at maximum induction of liaI [3]: ~1 µg/mL; fold induction at 2 µg/mL ([4]; Bacillus subtilis, 0.5 h, read-out: fold induction of liaI expression): ~65
12 | NC[C@H]1O[C@H](O[C@H]2[C@H](O)[C@@H](O[C@H]3O[C@H](CO)[C@@H](O)[C@H](N)[C@H]3O)[C@H](N)C[C@@H]2N)[C@H](O)[C@@H](O)[C@@H]1O [kanamycin] | − | 
13 | CO[C@H]1/C=C/O[C@@]2(C)Oc3c(C)c(O)c4c(O)c(c(/C=N/N5CCN(C)CC5)c(O)c4c3C2=O)NC(=O)/C(C)=C\C=C\[C@H](C)[C@H](O)[C@@H](C)[C@@H](O)[C@@H](C)[C@H](OC(C)=O)[C@@H]1C [rifampicin] | − | 
14 | CN[C@@H]1[C@H](O)[C@H](NC)[C@H]2O[C@@]3(O)C(=O)C[C@@H](C)O[C@H]3O[C@@H]2[C@H]1O [spectinomycin] | − | 
15 | [H]/N=C(/N)N[C@H]1[C@H](O)[C@@H](O)[C@H](O[C@@H]2O[C@@H](C)[C@](O)(C=O)[C@H]2O[C@@H]2O[C@@H](CO)[C@H](O)[C@@H](O)[C@@H]2NC)[C@@H](N/C(N)=N\[H])[C@@H]1O [streptomycin] | − | 
16 | CN(C)[C@@H]1C(O)=C(C(N)=O)C(=O)[C@@]2(O)C(O)=C3C(=O)c4c(O)cccc4[C@@](C)(O)[C@H]3C[C@@H]12 [tetracycline] | − | 
17 | Lysozyme | − | induction of liaI / liaH expression, in words [1]: ineffective as an inducer
18 | Moenomycin | − | 
19 | Polymyxin B | − | 
20 | Ramoplanin | + | induction of liaI / liaH expression, in words [1]: induced; lacZ-expression at higher concentration [3]: strong decrease down to un-induced levels; effect on cell growth / optical density [3]: rapid cell lysis; antibiotic concentration at maximum induction of liaI [3]: about 10 μg/ml; fold induction of liaI expression [4]: 420 fold
21 | Triton X100 | − | 
22 | Tunicamycin | + | fold induction of liaI expression [4]: three-fold
